Source: patent US20190117535A1, “ORAL RINSE” (Church & Dwight Co., Inc., priority 2017, published 2019)

What was measured:
[1] = Visual observation of precipitate formation / clarity while making the oral rinse composition; format: physicochemical
Method: A pilot trial was conducted to determine how sorbitol was affecting precipitate. A deionized water/sorbitol solution was made up and added to an empty chamber. […] A second trial was done with sorbitol as a rinse first, and then water was added.

[2] = Mixing time until clear solution / until TSPP is dissolved
Method: With US sourced raw materials, deionized water and sorbitol were combined. TSPP was added and fully dissolved. Zinc chloride was then added.
With US sourced raw materials, deionized water and sorbitol were combined. TSPP and zinc chloride were then simultaneously added and fully dissolved.
With Montreal sourced raw materials, deionized water and sorbitol were combined. Zinc chloride, TSPP, DSPP, and saccharin were then simultaneously added and mixed.
Charged deionized water, sorbitol, and saccharin were mixed until dissolved. A 50% zinc chloride solution was added and mixed. […] TSPP was added and mixed. […] Charged DSPP was added. […] The mix time to get the TSPP into solution was 28 minutes.
A 50% zinc chloride solution was prepared. Water and sorbitol were added to the main mix tank followed by saccharin. Saccharin was allowed to fully dissolve before adding the zinc chloride premix. […] TSPP was then added and it took 70 minutes to fully dissolve.
Mix times for TSPP to go into solution were 30 minutes (25 KG) & 23 minutes (150 KG).

OC[C@@H](O)[C@@H](O)[C@H](O)[C@@H](O)CO [sorbitol]
precipitate on rinsing the container ([1]; deionized water/sorbitol solution added to empty chamber): No precipitate formed, but solution was slightly cloudy
precipitate on rinsing the container ([1]; sorbitol as a rinse first, then water added): No precipitate formed

O=P([O-])([O-])OP(=O)([O-])[O-].[Na+].[Na+].[Na+].[Na+] [TSPP, tetrasodium pyrophosphate]
mix time to get the TSPP into solution ([2]; full pilot batch (150 KG), 50% zinc chloride solution): 28 min
time for TSPP to fully dissolve ([2]; full scale batch (800 KG), TSPP added after 50% zinc chloride premix): 70 min
dissolution time of TSPP ([2]; full scale batch (8000 KG), 62% zinc chloride solution, TSPP powder sifted through a screen): about 30 minutes
mix time for TSPP to go into solution ([2]; pilot trial 25 KG, 62% zinc chloride solution): 30 min
mix time for TSPP to go into solution ([2]; pilot trial 150 KG, 62% zinc chloride solution): 23 min
mixing time until solution clear after TSPP addition ([2]; pilot trial, TSPP added after 50% zinc chloride solution): 50 min
